Source: ChEMBL document CHEMBL1201862, “PubChem BioAssay data set” (2004)
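Five compound concentrations were applied to cells in 96-well plates for 48 hours; endpoints were derived by simple linear interpolation of the resulting dose-response curve. GI50 is the concentration that inhibits growth by half.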 Calls of active or inactive are those of the source. No stated cut-off is given here; in the data, active = GI50 up to about 1.1 µM and inactive = higher.

Key:
Assay in all cases: inhibition of tumour cell growth, NCI panel, 48 h
786-0 = system: 786-0
A498 = system: A498
A549 = system: A549
ACHN = system: ACHN
CAKI-1 = system: CAKI-1
CCRF-CEM = system: CCRF-CEM
COLO 205 = system: COLO 205
DLD-1 = system: DLD-1
DMS-114 = system: DMS-114
DMS-273 = system: DMS-273
EKVX = system: EKVX
HCC 2998 = system: HCC 2998
HCT-116 = system: HCT-116
HCT-15 = system: HCT-15
HL-60 = system: HL-60
HOP-18 = system: HOP-18
HOP-62 = system: HOP-62
HOP-92 = system: HOP-92
HT-29 = system: HT-29
IGROV-1 = system: IGROV-1
K562 = system: K562
KM-20L2 = system: KM-20L2
KM12 = system: KM12
LOX IMVI = system: LOX IMVI
LXFL 529 = system: LXFL 529
M14 = system: M14
M19-MEL = system: M19-MEL
MOLT-4 = system: MOLT-4
Malme-3M = system: Malme-3M
NCI-H226 = system: NCI-H226
NCI-H23 = system: NCI-H23
NCI-H460 = system: NCI-H460
NCI-H522 = system: NCI-H522
OVCAR-3 = system: OVCAR-3
OVCAR-4 = system: OVCAR-4
OVCAR-5 = system: OVCAR-5
OVCAR-8 = system: OVCAR-8
RPMI-8226 = system: RPMI-8226
RXF 631 = system: RXF 631
SF-268 = system: SF-268
SF-295 = system: SF-295
SF-539 = system: SF-539
SK-MEL-28 = system: SK-MEL-28
SK-MEL-2 = system: SK-MEL-2
SK-MEL-5 = system: SK-MEL-5
SK-OV-3 = system: SK-OV-3
SN12C = system: SN12C
SNB-19 = system: SNB-19
SNB-75 = system: SNB-75
SNB-78 = system: SNB-78
SR = system: SR
SW-620 = system: SW-620
TK-10 = system: TK-10
U-251 = system: U-251
UACC-257 = system: UACC-257
UACC-62 = system: UACC-62
UO-31 = system: UO-31
XF498 = system: XF498
RXF 393 = system: RXF 393

Structure (SMILES): Cc1ccc(NC(=O)CC(=O)n2nc(-c3ccccc3)c(/N=N/c3ccccc3Cl)c2-c2ccccc2)cc1
- GI50 (786-0): 32.6 µM (inactive)
- GI50 (A498): 34 µM (inactive)
- GI50 (A549): 98.2 µM (inactive)
- GI50 (ACHN): 49.9 µM (inactive)
- GI50 (CAKI-1): 42.6 µM (inactive)
- GI50 (CCRF-CEM): 41.4 µM (inactive)
- GI50 (COLO 205): > 10 µM (inactive)
- GI50 (DLD-1): > 10 µM (inactive)
- GI50 (DMS-114): > 10 µM (inactive)
- GI50 (DMS-273): 41.8 µM (inactive)
- GI50 (EKVX): 88.9 µM (inactive)
- GI50 (HCC 2998): > 10 µM (inactive)
- GI50 (HCT-116): 39.5 µM (inactive)
- GI50 (HCT-15): > 10 µM
- GI50 (HL-60): 0.458 µM (active)
- GI50 (HOP-18): 38.1 µM (inactive)
- GI50 (HOP-62): 83.8 µM (inactive)
- GI50 (HOP-92): 23.6 µM (inactive)
- GI50 (HT-29): > 10 µM (inactive)
- GI50 (IGROV-1): > 10 µM (inactive)
- GI50 (K562): 94.8 µM (inactive)
- GI50 (KM-20L2): > 10 µM (inactive)
- GI50 (KM12): > 10 µM (inactive)
- GI50 (LOX IMVI): 92.5 µM (inactive)
- GI50 (LXFL 529): 71.8 µM (inactive)
- GI50 (M14): 88.3 µM (inactive)
- GI50 (M19-MEL): > 10 µM (inactive)
- GI50 (MOLT-4): > 10 µM (inactive)
- GI50 (Malme-3M): 48.3 µM (inactive)
- GI50 (NCI-H226): > 10 µM (inactive)
- GI50 (NCI-H23): 39.5 µM (inactive)
- GI50 (NCI-H460): 75.5 µM (inactive)
- GI50 (NCI-H522): 65.8 µM (inactive)
- GI50 (OVCAR-3): > 10 µM (inactive)
- GI50 (OVCAR-4): 26.5 µM (inactive)
- GI50 (OVCAR-5): 19.4 µM (inactive)
- GI50 (OVCAR-8): 42.5 µM (inactive)
- GI50 (RPMI-8226): > 10 µM (inactive)
- GI50 (RXF 631): 96.2 µM (inactive)
- GI50 (SF-268): > 10 µM (inactive)
- GI50 (SF-295): 48 µM (inactive)
- GI50 (SF-539): 76.6 µM (inactive)
- GI50 (SK-MEL-28): 62.2 µM (inactive)
- GI50 (SK-MEL-2): > 10 µM (inactive)
- GI50 (SK-MEL-5): 67.1 µM (inactive)
- GI50 (SK-OV-3): 27 µM (inactive)
- GI50 (SN12C): > 10 µM (inactive)
- GI50 (SNB-19): 38.8 µM (inactive)
- GI50 (SNB-75): 16.4 µM (inactive)
- GI50 (SNB-78): > 10 µM (inactive)
- GI50 (SR): > 100 µM (inactive)
- GI50 (SW-620): 92 µM (inactive)
- GI50 (TK-10): 83.9 µM (inactive)
- GI50 (U-251): 60.8 µM (inactive)
- GI50 (UACC-257): > 10 µM (inactive)
- GI50 (UACC-62): 45.4 µM (inactive)
- GI50 (UO-31): > 10 µM (inactive)
- GI50 (XF498): 49 µM (inactive)

Structure (SMILES): CC(/C=C/C(=O)c1sc(C(N)=S)nc1C)=C\c1ccccc1
- GI50 (786-0): > 100 µM (inactive)
- GI50 (A498): > 100 µM (inactive)
- GI50 (A549): > 100 µM (inactive)
- GI50 (ACHN): 81.8 µM (inactive)
- GI50 (CAKI-1): 23.4 µM (inactive)
- GI50 (CCRF-CEM): 58.2 µM (inactive)
- GI50 (COLO 205): 54 µM (inactive)
- GI50 (DLD-1): 21 µM (inactive)
- GI50 (DMS-114): 17 µM (inactive)
- GI50 (DMS-273): 20 µM (inactive)
- GI50 (EKVX): > 100 µM (inactive)
- GI50 (HCC 2998): > 100 µM (inactive)
- GI50 (HCT-116): > 10 µM (inactive)
- GI50 (HCT-15): > 100 µM
- GI50 (HL-60): > 100 µM (inactive)
- GI50 (HOP-18): > 100 µM (inactive)
- GI50 (HOP-62): > 100 µM (inactive)
- GI50 (HOP-92): > 100 µM (inactive)
- GI50 (HT-29): > 100 µM (inactive)
- GI50 (IGROV-1): > 100 µM (inactive)
- GI50 (K562): > 100 µM (inactive)
- GI50 (KM-20L2): 80.2 µM (inactive)
- GI50 (KM12): > 100 µM (inactive)
- GI50 (LOX IMVI): 18.2 µM (inactive)
- GI50 (LXFL 529): > 100 µM (inactive)
- GI50 (M14): > 100 µM (inactive)
- GI50 (M19-MEL): > 100 µM (inactive)
- GI50 (MOLT-4): > 100 µM (inactive)
- GI50 (Malme-3M): > 100 µM (inactive)
- GI50 (NCI-H226): > 100 µM (inactive)
- GI50 (NCI-H23): > 100 µM (inactive)
- GI50 (NCI-H460): 35.4 µM (inactive)
- GI50 (NCI-H522): 81.8 µM (inactive)
- GI50 (OVCAR-3): > 100 µM (inactive)
- GI50 (OVCAR-4): > 100 µM (inactive)
- GI50 (OVCAR-5): > 100 µM (inactive)
- GI50 (OVCAR-8): > 100 µM (inactive)
- GI50 (RPMI-8226): 19.3 µM (inactive)
- GI50 (RXF 393): > 100 µM (inactive)
- GI50 (RXF 631): 40.6 µM (inactive)
- GI50 (SF-268): > 100 µM (inactive)
- GI50 (SF-295): > 100 µM (inactive)
- GI50 (SF-539): > 100 µM (inactive)
- GI50 (SK-MEL-28): > 100 µM (inactive)
- GI50 (SK-MEL-2): > 100 µM (inactive)
- GI50 (SK-MEL-5): > 100 µM (inactive)
- GI50 (SK-OV-3): > 100 µM (inactive)
- GI50 (SN12C): > 100 µM (inactive)
- GI50 (SNB-19): 15.1 µM (inactive)
- GI50 (SNB-75): > 100 µM (inactive)
- GI50 (SNB-78): > 100 µM (inactive)
- GI50 (SR): 31.9 µM (inactive)
- GI50 (TK-10): > 100 µM (inactive)
- GI50 (U-251): > 100 µM (inactive)
- GI50 (UACC-257): > 100 µM (inactive)
- GI50 (UACC-62): > 100 µM (inactive)
- GI50 (UO-31): > 100 µM (inactive)
- GI50 (XF498): > 100 µM (inactive)
